Source: patent publication US9718770B2, “Substituted thioureas as heat shock protein 70 inhibitors” (Institute of Pharmacology and Toxicology Academy of …, priority 2013, dated 2017)

Assays:
MDA-MB-361 = experiment: CDI of example compounds and Lapatinib (ATPlite cell survival); assay type: cell-based; parameters: key: CDI = AB/(A×B); <1 synergistic; conditions: compound 5 μM + Lapatinib 1 μM, 72 h; natural Lapatinib-resistant human breast cancer cells; CDI<1 synergistic
How it was run: (§1)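 BT474, MDA-MB-361, BT/LapR and MDA-MB-453 cells seeded at 5000/well, adhered 24 h, then exposed 72 h at 37 °C to test compound (final 5 μM) alone or with lapatinib (final 1 μM). Survival by ATPlite luminescence vs solvent control; CDI = AB/(A×B) from live-cell RLU.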

SK-BR3 = experiment: as above; assay type: cell-based; parameters: key: CDI = AB/(A×B); <1 synergistic; conditions: compound 5 μM + Lapatinib 1 μM, 72 h; Lapatinib-sensitive human breast cancer cells; CDI<1 synergistic
How it was run: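 SK-BR3 Lapatinib-sensitive human breast cancer cells were plated in 96-well plates at 5000 cell/well, allowed to adhere for 24 h at 37° C., then exposed for 72 h to test compound at 5 μM alone or combined with Lapatinib at 1 μM. Viability came from ATPlite luminescence, and the coefficient of drug interaction was computed as CDI=AB/(A×B)×100%, with CDI<1 indicating synergy.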

MDA-MB-453 = experiment: as above; assay type: cell-based; parameters: key: CDI = AB/(A×B); <1 synergistic; conditions: compound 5 μM + Lapatinib 1 μM, 72 h; natural Lapatinib-resistant human breast cancer cells; CDI<1 synergistic
How it was run: as §1

BT474 = experiment: as above; assay type: cell-based; parameters: key: CDI = AB/(A×B); <1 synergistic; conditions: compound 5 μM + Lapatinib 1 μM, 72 h; Lapatinib-sensitive human breast cancer cells; CDI<1 synergistic, <0.7 very significant, >1 antagonistic
How it was run: as §1

BT/Lap^R1.0 = experiment: as above; assay type: cell-based; conditions: compound 5 μM + Lapatinib 1 μM, 72 h; secondary Lapatinib-resistant human breast cancer cells; CDI<1 synergistic
How it was run: as §1

SK/Lap^R1.0 = experiment: as above; assay type: cell-based; conditions: compound 5 μM + Lapatinib 1 μM, 72 h; secondary Lapatinib-resistant human breast cancer cells; CDI<1 synergistic
How it was run: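 SK/LapR cells, a human breast cancer line with acquired Lapatinib resistance, were seeded in 96-well plates at 5000 cells/well and left to adhere for 24 h at 37° C. They then received test compound at 5 μM, alone or together with 1 μM Lapatinib, for 72 h. ATPlite luminescence measured survival, and CDI = AB/(A×B)×100% was calculated, with CDI<1 meaning synergy.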

Hsp70 ATPase = molecular target: T1, Hsp70 ATPase (Homo sapiens, UniProt P0DMV8); experiment: Inhibition of Hsp70 ATPase activity (malachite green); assay type: biochemical; conditions: 200 μM; repeated screening carried out twice; Hsp70/Hsp40, 1 mM ATP; read-out: Inhibitory rate (%) on activity of Hsp70 ATPase
T1 construct: made in house; host or cells: E. coli
How it was run: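 Human Hsp70 (DnaK) with its co-chaperone Hsp40 (DnaJ), both produced in E. coli, was mixed in buffer of 100 mM Tris-HCl, 20 mM KCl, 6 mM MgCl2 and 0.017% Triton X-100 (pH 7.4). Test sample or DMSO was added, agitated for 10 min, then held at 37° C. for 30 min. Adding 1 mM ATP started hydrolysis for 3 h at 37° C. Malachite green and 34% sodium citrate were then added, and OD620 gave percent inhibition against DMSO and blank wells.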

T1 sequence (P0DMV8 2-641 limits assumed): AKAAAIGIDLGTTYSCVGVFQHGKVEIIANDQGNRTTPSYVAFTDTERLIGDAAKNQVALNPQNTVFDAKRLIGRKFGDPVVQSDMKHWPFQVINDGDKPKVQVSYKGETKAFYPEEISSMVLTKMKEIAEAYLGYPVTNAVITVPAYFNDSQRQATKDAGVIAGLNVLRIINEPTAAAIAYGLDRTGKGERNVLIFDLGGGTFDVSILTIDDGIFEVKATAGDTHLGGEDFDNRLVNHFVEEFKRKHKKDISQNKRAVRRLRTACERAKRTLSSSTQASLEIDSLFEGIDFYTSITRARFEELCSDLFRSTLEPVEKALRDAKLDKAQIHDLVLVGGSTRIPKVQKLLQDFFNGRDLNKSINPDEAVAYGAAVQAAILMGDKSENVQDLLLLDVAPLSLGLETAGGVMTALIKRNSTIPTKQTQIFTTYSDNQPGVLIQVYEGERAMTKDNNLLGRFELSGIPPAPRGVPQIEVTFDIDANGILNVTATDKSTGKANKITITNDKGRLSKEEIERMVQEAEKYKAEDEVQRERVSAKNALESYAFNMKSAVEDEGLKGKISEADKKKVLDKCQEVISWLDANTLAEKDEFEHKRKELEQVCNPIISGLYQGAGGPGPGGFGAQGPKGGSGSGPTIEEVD

inhibition at 200 µM (Hsp70 ATPase) [%]	Compound	CDI of example compounds and Lapatinib, MDA-MB-361 (MDA-MB-361)	CDI of example compounds and Lapatinib, SK-BR3 (SK-BR3)	CDI of example compounds and Lapatinib, MDA-MB-453 (MDA-MB-453)	CDI of example compounds and Lapatinib, BT474 (BT474)	CDI of example compounds and Lapatinib, BT/Lap^R1.0 (BT/Lap^R1.0)	CDI of example compounds and Lapatinib, SK/Lap^R1.0 (SK/Lap^R1.0)
58.4	CC(C)CC(NC(=O)/C=C/c1ccccc1)NC(=S)NC1CCCCC1 (stereo not drawn) [Example 54, N-[1-(3-cyclohexylthioureido)-3-methylbutyl] cinnamamide]	0.9	1.16	1.2	0.77	0.98	1.14
27.3	CC(C)(C)C(NC(=O)/C=C/c1ccccc1)NC(=S)Nc1ccccc1 (stereo not drawn) [Example 40, (2E)-N-[2,2-dimethyl-1-(3-phenylthioureido)propyl] cinnamamide]	0.95	1.14	1.37	0.85	0.95	0.99

The remaining lines, values behind:

Compound	inhibition at 200 µM (Hsp70 ATPase) [%]	CDI of example compounds and Lapatinib, MDA-MB-361 (MDA-MB-361)	CDI of example compounds and Lapatinib, SK-BR3 (SK-BR3)	CDI of example compounds and Lapatinib, MDA-MB-453 (MDA-MB-453)	CDI of example compounds and Lapatinib, BT474 (BT474)	CDI of example compounds and Lapatinib, BT/Lap^R1.0 (BT/Lap^R1.0)	CDI of example compounds and Lapatinib, SK/Lap^R1.0 (SK/Lap^R1.0)
COc1cc(/C=C/C(=O)NC(CC(C)C)NC(=S)Nc2ccccc2)cc(OC)c1OC (stereo not drawn) [Example 24, (2E)-N-[3-methyl-1-(3-phenylthioureido)butyl]-3-(3,4,5-trimethoxyphenyl) acrylamide]	50.4	0.92	1.04	1.12	1.03	0.98	1
O=C(/C=C/c1ccccc1)NC(NC(=S)Nc1ccccn1)C1CC1 (stereo not drawn) [Example 37, (2E)-N-[cyclopropyl-(3-pyridin-2-ylthioureido)-methyl] cinnamamide]	1.51	0.99	0.99	1.34	0.98	1.02	1.03
COc1ccc(NC(=S)NC(NC(=O)/C=C/c2cc(OC)c(OC)c(OC)c2)C(C)C)cc1 (stereo not drawn) [Example 50, (2E)-N-{1-[3-(4-methoxyphenyl)thioureido]-2-methylpropyl}-3-(3,4,5-trimethoxyphenyl) acrylamide]	28.8	0.97	1.06	1.4	1.02	1.02	0.96
Cc1ccccc1NC(=S)NC(CC(C)C)NC(=O)/C=C/c1ccccc1 (stereo not drawn) [Example 47, N-[3-methyl-1-(3-o-methylphenylthioureido)butyl] cinnamamide]	61.3	1.05	1.15	1.39	0.84	0.97	0.98
